We go through 35 compounds from US20130338154A1, “MGLUR4 ALLOSTERIC POTENTIATORS, COMPOSITIONS, AND METHODS OF TREATING NEUROLOGICAL DYSFUNCTION” (Vanderbilt University, priority 2009, published 2013).

SMILES strings stand for the structures.

Test [1] deals with T1, mGluR4 (Homo sapiens, UniProt Q14833). As to the kind of experiment: mGluR4 potentiation assay (Table I): response to EC20 agonist in presence of compound. The note with it: for EC50: potentiation of mGluR4 agonist response. Type of test: cell-based.
Target sequence in this assay (Q14833 whole entry): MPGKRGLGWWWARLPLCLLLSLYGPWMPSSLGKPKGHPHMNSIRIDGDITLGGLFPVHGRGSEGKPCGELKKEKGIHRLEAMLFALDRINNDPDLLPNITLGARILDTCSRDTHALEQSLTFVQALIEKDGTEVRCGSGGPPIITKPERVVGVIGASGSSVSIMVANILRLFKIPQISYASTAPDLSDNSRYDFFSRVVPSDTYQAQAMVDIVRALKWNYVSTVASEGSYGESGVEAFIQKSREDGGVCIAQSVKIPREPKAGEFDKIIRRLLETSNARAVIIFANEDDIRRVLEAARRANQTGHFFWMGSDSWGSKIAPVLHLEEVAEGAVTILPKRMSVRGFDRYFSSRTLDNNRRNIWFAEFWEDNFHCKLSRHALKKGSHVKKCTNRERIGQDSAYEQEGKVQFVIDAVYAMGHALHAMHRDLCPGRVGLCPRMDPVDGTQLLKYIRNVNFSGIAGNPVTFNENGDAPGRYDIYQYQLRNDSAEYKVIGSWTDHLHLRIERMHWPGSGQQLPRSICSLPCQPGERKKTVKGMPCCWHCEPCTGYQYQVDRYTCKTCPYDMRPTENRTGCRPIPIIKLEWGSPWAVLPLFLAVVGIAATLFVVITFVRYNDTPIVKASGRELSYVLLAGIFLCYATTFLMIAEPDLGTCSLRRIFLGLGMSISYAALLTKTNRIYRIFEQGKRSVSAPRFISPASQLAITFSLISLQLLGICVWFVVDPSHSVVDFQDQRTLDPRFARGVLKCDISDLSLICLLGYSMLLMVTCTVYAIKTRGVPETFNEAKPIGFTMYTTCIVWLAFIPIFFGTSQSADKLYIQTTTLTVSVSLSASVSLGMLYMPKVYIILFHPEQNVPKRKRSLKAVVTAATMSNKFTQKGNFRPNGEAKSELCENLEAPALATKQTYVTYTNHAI
Test [2] has as its target T1, mGluR4. Kind of test: human mGluR4 potentiation in transfected CHO cells, Ca2+-sensitive fluorescent dye. Type of test: cell-based. Further details: expressed in transfected cells; host or cells: CHO cells. Conditions: unit inferred, read-out: hEC50.
Target sequence in this assay (Q14833 33-912): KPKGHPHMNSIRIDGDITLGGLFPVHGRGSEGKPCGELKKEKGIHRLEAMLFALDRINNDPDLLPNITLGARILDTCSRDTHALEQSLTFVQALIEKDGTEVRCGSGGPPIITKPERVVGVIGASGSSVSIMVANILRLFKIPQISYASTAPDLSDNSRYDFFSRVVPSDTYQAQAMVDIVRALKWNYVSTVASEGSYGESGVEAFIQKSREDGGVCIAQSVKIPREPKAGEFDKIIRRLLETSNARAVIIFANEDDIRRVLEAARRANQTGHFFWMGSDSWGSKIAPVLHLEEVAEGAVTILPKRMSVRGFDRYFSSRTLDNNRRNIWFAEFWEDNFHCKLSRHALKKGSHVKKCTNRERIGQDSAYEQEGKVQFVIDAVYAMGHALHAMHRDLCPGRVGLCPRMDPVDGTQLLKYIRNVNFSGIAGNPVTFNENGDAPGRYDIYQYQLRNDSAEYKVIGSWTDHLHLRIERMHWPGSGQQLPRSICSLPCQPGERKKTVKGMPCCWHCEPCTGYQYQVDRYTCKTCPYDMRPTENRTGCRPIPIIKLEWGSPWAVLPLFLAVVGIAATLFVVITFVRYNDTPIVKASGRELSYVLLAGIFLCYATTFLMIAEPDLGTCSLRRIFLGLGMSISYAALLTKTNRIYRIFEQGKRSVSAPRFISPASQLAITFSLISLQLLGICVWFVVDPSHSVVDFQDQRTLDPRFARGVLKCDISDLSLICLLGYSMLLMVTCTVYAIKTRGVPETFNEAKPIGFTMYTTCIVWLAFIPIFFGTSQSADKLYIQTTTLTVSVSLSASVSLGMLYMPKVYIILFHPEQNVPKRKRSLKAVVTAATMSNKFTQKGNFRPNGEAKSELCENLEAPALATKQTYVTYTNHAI

As to `O=C(Nc1ccn(S(=O)(=O)c2ccccc2OC(F)(F)F)c1)c1ccccn1` [Example 7], the “% Glu Max” value on mGluR4 [1] (maximum extent of potentiation) is recorded as 90%. Further, on mGluR4 [1], the EC50 worked out at 203 nM. For the compound `O=C(Nc1ccn(S(=O)(=O)c2cccc(-c3ccccc3)c2)c1)c1ccccn1` [Example 12], at mGluR4 [1] (maximum extent of potentiation), the “% Glu Max” value came to 122%. In addition, the EC50 at mGluR4 [1] is 3310 nM.

For `N#Cc1cccc(S(=O)(=O)n2ccc(NC(=O)c3ccccn3)c2)c1` [Example 13], the “% Glu Max” value at mGluR4 [1] (maximum extent of potentiation) is on record as 104%. At mGluR4 [1], the EC50 is 282 nM. On to `O=C(Nc1ccn(S(=O)(=O)c2cccc(Cl)c2)c1)c1ccccn1` [Example 14], for which, on mGluR4 [1] (maximum extent of potentiation), the “% Glu Max” value is reported as 139%. Moreover, at mGluR4 [1], the EC50 came out at 106 nM. Regarding `Cc1cccc(S(=O)(=O)n2ccc(NC(=O)c3ccccn3)c2)c1` [Example 15], the “% Glu Max” value at mGluR4 [1] (maximum extent of potentiation) is listed as 175%. The EC50 on mGluR4 [1] came out at 90 nM. Consider `O=C(Nc1ccn(S(=O)(=O)c2ccc(OC(F)F)cc2)c1)c1ccccn1` [Example 16], for which, on mGluR4 [1] (maximum extent of potentiation), the “% Glu Max” value amounted to 151%. The EC50 at mGluR4 [1] amounted to 162 nM. As for `CC(C)Cc1ccc(S(=O)(=O)n2ccc(NC(=O)c3ccccn3)c2)cc1` [Example 17], the “% Glu Max” value on mGluR4 [1] (maximum extent of potentiation) was 30%. In addition, the EC50 on mGluR4 [1] amounted to 258 nM. For the compound `O=C(Nc1ccn(S(=O)(=O)c2ccc(OC(F)(F)F)cc2)c1)c1ccccn1` [Example 18], on mGluR4 [1] (maximum extent of potentiation), the “% Glu Max” value is 93%. Moreover, on mGluR4 [1], the EC50 worked out at 546 nM.

Turning to `O=C(Nc1ccn(S(=O)(=O)c2ccc(F)cc2)c1)c1ccccn1` [Example 19], the “% Glu Max” value on mGluR4 [1] (maximum extent of potentiation) is on record as 137%. Also, on mGluR4 [1], the EC50 stood at 280 nM. With `Cc1ccc(S(=O)(=O)n2ccc(NC(=O)c3ccccn3)c2)cc1` [Example 20], the “% Glu Max” value at mGluR4 [1] (maximum extent of potentiation) was 188%. The EC50 at mGluR4 [1] came to 57 nM.

Regarding `O=C(Nc1ccn(S(=O)(=O)c2ccc(Cl)cc2)c1)c1ccccn1` [Example 21], the “% Glu Max” value at mGluR4 [1] (maximum extent of potentiation) came to 215%. The EC50 at mGluR4 [1] is 655 nM.

Regarding `O=C(Nc1ccn(S(=O)(=O)C2CCCCC2)c1)c1ccccn1` [Example 22], on mGluR4 [1] (maximum extent of potentiation), the “% Glu Max” value was found to be 189%. Also, at mGluR4 [1], the EC50 came out at 1940 nM. As for `O=C(Nc1ccn(S(=O)(=O)c2ccc(C(F)(F)F)cc2)c1)c1ccccn1` [Example 23], on mGluR4 [1] (maximum extent of potentiation), the “% Glu Max” value amounted to 85%. Moreover, the EC50 on mGluR4 [1] was found to be 413 nM. `O=C(Nc1ccn(S(=O)(=O)Cc2cccc(F)c2)c1)c1ccccn1` [Example 24]: the “% Glu Max” value at mGluR4 [1] (maximum extent of potentiation) came to 140%. In addition, the EC50 on mGluR4 [1] worked out at 587 nM. Regarding `O=C(Nc1ccn(S(=O)(=O)Cc2cccc(Cl)c2)c1)c1ccccn1` [Example 25], at mGluR4 [1] (maximum extent of potentiation), the “% Glu Max” value came to 132%. The EC50 at mGluR4 [1] stood at 839 nM. In the case of `O=C(Nc1ccn(S(=O)(=O)Cc2cccc(C(F)(F)F)c2)c1)c1ccccn1` [Example 27], the “% Glu Max” value at mGluR4 [1] (maximum extent of potentiation) is 117%. For the same compound, the EC50 at mGluR4 [1] was determined as 1730 nM. Regarding `Cc1ccccc1CS(=O)(=O)n1ccc(NC(=O)c2ccccn2)c1` [Example 28], at mGluR4 [1] (maximum extent of potentiation), the “% Glu Max” value amounted to 164%. Moreover, the EC50 at mGluR4 [1] worked out at 1130 nM. The like results for `O=C(Nc1ccn(S(=O)(=O)Cc2ccccc2F)c1)c1ccccn1` [Example 29] were, in that order, 161% and 473 nM. On to `O=C(Nc1ccn(S(=O)(=O)Cc2ccccc2Cl)c1)c1ccccn1` [Example 30], for which, on mGluR4 [1] (maximum extent of potentiation), the “% Glu Max” value stood at 163%. Further, the EC50 on mGluR4 [1] came out at 83 nM. For `O=C(Nc1ccn(S(=O)(=O)Cc2ccc(Cl)cc2Cl)c1)c1ccccn1` [Example 31], the “% Glu Max” value on mGluR4 [1] (maximum extent of potentiation) was determined as 206%. The EC50 at mGluR4 [1] amounted to 445 nM. On to `O=C(Nc1ccn(S(=O)(=O)Cc2ccc(F)cc2F)c1)c1ccccn1` [Example 32], for which the “% Glu Max” value at mGluR4 [1] (maximum extent of potentiation) was found to be 159%. Further, on mGluR4 [1], the EC50 came to 188 nM.

`Cc1ccc(CS(=O)(=O)n2ccc(NC(=O)c3ccccn3)c2)cc1C` [Example 33]: at mGluR4 [1] (maximum extent of potentiation), the “% Glu Max” value is 178%. Also, the EC50 at mGluR4 [1] turned out to be 215 nM. For `O=C(Nc1ccn(S(=O)(=O)Cc2ccc(Cl)c(Cl)c2)c1)c1ccccn1` [Example 34], the “% Glu Max” value at mGluR4 [1] (maximum extent of potentiation) is recorded as 159%. For the same compound, the EC50 on mGluR4 [1] worked out at 828 nM.

As to `O=C(Nc1ccn(S(=O)(=O)Cc2cc(Cl)cc(Cl)c2)c1)c1ccccn1` [Example 35], the “% Glu Max” value on mGluR4 [1] (maximum extent of potentiation) is 156%. For the same compound, the EC50 at mGluR4 [1] worked out at 3830 nM. For the compound `O=C(Nc1ccn(S(=O)(=O)Cc2ccc(C(F)(F)F)cc2)c1)c1ccccn1` [Example 37], the “% Glu Max” value at mGluR4 [1] (maximum extent of potentiation) came to 158%. Moreover, the EC50 at mGluR4 [1] was determined as 154 nM. Regarding `Cc1cccc(CS(=O)(=O)n2ccc(NC(=O)c3ccccn3)c2)c1` [Example 38], the “% Glu Max” value on mGluR4 [1] (maximum extent of potentiation) turned out to be 289%. For the same compound, on mGluR4 [1], the EC50 came to 1450 nM. With `O=C(Nc1ccn(S(=O)(=O)c2ccccc2Cl)c1)c1ccccc1` [Example 46, N-(1-(2-chlorophenylsulfonyl)-1H-pyrrol-3-yl)benzamide], the Emax at mGluR4 [1] (maximum extent of potentiation, read-out: % Glu Max) is 85%. As for `Cc1ccc(S(=O)(=O)n2ccc(NC(=O)c3nccs3)c2)cc1` [Example 51, N-(1-tosyl-1H-pyrrol-3-yl)thiazole-2-carboxamidc], at mGluR4 [2], the EC50 was 348 nM. Regarding `CC(c1ccccc1F)S(=O)(=O)n1ccc(NC(=O)c2ccccn2)c1` (stereo not shown) [Example 99, N-(1-((1-(2-fluorophenyl)ethyl)sulfonyl)-1H-pyrrol-3-yl)picolinamidc], the EC50 at mGluR4 [2] is 396 nM. For `Cc1ccnc(S(=O)(=O)n2ccc(NC(=O)c3ccccn3)c2)c1` [Example 117, N-(1-((4-mcthylpyridin-2-yl)sulfonyl)-1H-pyrrol-3-yl)picolinamide], the EC50 at mGluR4 [2] was 1290 nM. Regarding `Cc1cc(S(=O)(=O)n2ccc(NC(=O)c3ccccn3)c2)cnc1Cl` [Example 119, N-(1-((6-chloro-5-metliylpyridin-3-yl)sulfonyl)-1H-pyrrol-3-yl)picolinamide], at mGluR4 [2], the EC50 was 249 nM. For the compound `O=C(Nc1ccn(S(=O)(=O)c2ccc(C(F)(F)F)nc2)c1)c1ccccn1` [Example 120, N-(1-((6-(trifluoromethyl)pyricIin-3-yl)sulfonyl)-1H-pyrrol-3-yl)picolinamide], the EC50 at mGluR4 [2] is 666 nM. The same measure, in the same setting: under `Cc1ccc(S(=O)(=O)n2ccc(NC(=O)c3ccccn3)c2)o1` [Example 142, N-(1-((5-methylruran-2-yl)sulfonyl)-1H-pyrrol-3-yl)picolinamide] stands 256 nM; under `O=C(Nc1ccn(S(=O)(=O)c2ccc3c(c2)CCO3)c1)c1ccccn1` [Example 145, N-(1-((2,3-dihydrobenzoruran-5-yl)sulfonyl)-1H-pyrrol-3-yl)picolinamide], 78.4 nM; under `Cc1ccc(S(=O)(=O)n2ccc(NC(=O)c3ccco3)c2)cc1` [Example 165, N-(1-tosyl-1H-pyrrol-3-yl)furan-2-carboxamidc], 854 nM.
